Laboratory results: patent US9884832B2 (priority 2011, dated 2018)

Each molecule was assayed against AM2 S31 (wild-type serine at position 31 in the M2 protein), influenza virus A/Udorn/72 (Influenza A virus, UniProt P0DOF5) (assay: cell-based). Details: 100 uM; Xenopus oocytes; activity range class; read-out: S31 OOcyte Inhibition at 100 uM (%).
Chain of AM2 S31 (wild-type serine at position 31 in the M2 protein), influenza virus A/Udorn/72 (P0DOF5 whole entry, looked up): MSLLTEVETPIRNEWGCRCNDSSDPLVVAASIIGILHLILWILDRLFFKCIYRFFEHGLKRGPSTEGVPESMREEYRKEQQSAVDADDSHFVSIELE

Structure (SMILES)	inhibition at 100 µM [%]
c1cncc(-c2noc(CNC34CC5CC(CC(C5)C3)C4)n2)c1 [Example 135a, Adamantan-1-yl-(3-pyridin-3-yl-[1,2,4]oxadiazol-5-ylmethyl)-amine]	0 to 30
Brc1cnc(CNC23CC4CC(CC(C4)C2)C3)s1 [Example 86a, Adamantan-1-yl-(5-bromo-thiazol-2-ylmethyl)-amine]	0 to 30
c1cc(CNC23CC4CC(CC(C4)C2)C3)co1 [Example 66a, Adamantan-1-yl-furan-3-ylmethyl-amine]	31 to 95
COc1cc(Cl)sc1CNC12CC3CC(CC(C3)C1)C2 [Example 80a]	31 to 95
OC12CC3CC(C1)CC(NCc1cc4cc(Br)sc4s1)(C3)C2 [Example 195a, 3-[(5-Bromo-thieno[2,3-b]thiophen-2-ylmethyl)-amino]-adamantan-1-ol]	0 to 30
c1cc(CNC23CC4CC(CC(C4)C2)C3)cc(-c2ccco2)c1 [Example 30a, N-(3-(Furan-2-yl)benzyl)adamantan-1-amine]	0 to 30
OCc1cc(Br)ccc1CNC12CC3CC(CC(C3)C1)C2 [Example 52a, [2-(Adamantan-1-ylaminomethyl)-5-bromo-phenyl]methanol]	0 to 30
c1cc(-c2ccc(CNC34CC5CC(CC(C5)C3)C4)o2)[nH]n1 [Example 162a, N-((5-(1H-pyrazol-5-yl)furan-2-yl)methyl)adamantan-1-amine]	0 to 30
c1c[nH]c(CNC23CC4CC(CC(C4)C2)C3)c1 [Example 72a, Adamantan-1-yl-(1H-pyrrol-2-ylmethyl)-amine]	31 to 95
C1CCC(c2nc(CNC34CC5CC(CC(C5)C3)C4)no2)C1 [Example 109a, N-((5-cyclopentyl-1,2,4-oxadiazol-3-yl)methyl)adamantan-1-amine]	0 to 30
CCc1ccc(CNC23CC4CC(CC(C4)C2)C3)s1 [Example 98a, N-((5-ethylthiophen-2-yl)methyl)adamantan-1-amine]	31 to 95
CC(C)(C)c1ccc(CNC23CC4CC(CC(C4)C2)C3)cc1 [Example 7a, N-(4-(tert-Butyl)benzyl)adamantan-1-amine methanesulfonate]	0 to 30
c1cc(CNC23CC4CC(CC(C4)C2)C3)cs1 [Example 68a, Adamantan-1-yl-thiophen-3-ylmethyl-amine]	31 to 95
Cn1c(CNC23CC4CC(CC(C4)C2)C3)nc2ccccc21 [Example 180a, Adamantan-1-yl-(1-methyl-1H-benzoimidazol-2-ylmethyl)-amine]	0 to 30
Clc1cccc2cc(CNC34CC5CC(CC(C5)C3)C4)sc12 [Example 183a, Adamantan-1-yl-(7-chloro-benzo[b]thiophen-2-ylmethyl)-amine]	31 to 95
Oc1cc(OCc2ccccc2)ccc1CNC12CC3CC(CC(C3)C1)C2 [Example 37a, 2-(Adamantan-1-ylaminomethyl)-5-benzyloxy-phenol]	31 to 95
Brc1ccc(CNC23CC4CC(CC(C4)C2)C3)[nH]1 [Example 88a, Adamantan-1-yl-(5-bromo-1H-pyrrol-2-ylmethyl)-amine]	31 to 95
c1csc(-c2ccc(-c3ccc(CNC45CC6CC(CC(C6)C4)C5)s3)s2)c1 [Example 157a, N-([2,2′:5′,2″-terthiophen]-5-ylmethyl)adamantan-1-amine]	0 to 30
OC12CC3CC(C1)CC(NCc1ccc(Br)s1)(C3)C2 [Example 188a, 3-[(5-Bromo-thiophen-2-ylmethyl)-amino]adamantan-1-ol]	0 to 30
OC12CC3CC(C1)CC(NCc1cccs1)(C3)C2 [Example 187a, 3-[(Thiophen-2-ylmethyl)-amino]adamantan-1-ol]	0 to 30
Oc1cc(Br)ccc1CNC12CC3CC(CC(C3)C1)C2 [Example 50a, 2-(((3s,5s,7s)-adamantan-1-ylamino)methyl)-5-bromophenol]	31 to 95
Cc1csc2sc(CNC34CC5CC(CC(C5)C3)C4)c(C)c12 [Example 176a]	0 to 30
OC12CC3CC(C1)CC(NCc1ccc(Cl)s1)(C3)C2 [Example 189a, 3-[(5-Chloro-thiophen-2-ylmethyl)-amino]adamantan-1-ol]	0 to 30
Brc1nc(CNC23CC4CC(CC(C4)C2)C3)cs1 [Example 83a, N-((2-bromothiazol-4-yl)methyl)adamantan-1-amine]	31 to 95
Brc1ccc(CNC23CC4CC(CC(C4)C2)C3)nc1 [Example 54a, Adamantan-1-yl-(5-bromo-pyridin-2-ylmethyl)-amine]	31 to 95
c1csc(-c2cc(CNC34CC5CC(CC(C5)C3)C4)on2)c1 [Example 149a, N-((3-(thiophen-2-yl)isoxazol-5-yl)methyl)adamantan-1-amine]	0 to 30
Cc1ccc(CNC23CC4CC(CC(C4)C2)C3)c(O)c1 [Example 51a]	31 to 95

Same assay, conditions: Table 1; 100 uM; Xenopus oocytes, pH 5.5, -20 mV; read-out: S31 OOcyte Inhibition at 100 uM (%)

Structure (SMILES)	inhibition at 100 µM [%]
c1ccc(CNC23CC4CC(CC(C4)C2)C3)nc1 [Example 72, Adamantan-1-yl-pyridin-2-ylmethyl-amine]	0 to 30
c1cc2[nH]c(CNC34CC5CC(CC(C5)C3)C4)cc2s1 [Example 80, Adamantan-1-yl-(4H-thieno[3,2-b]pyrrol-5-ylmethyl)-amine]	31 to 95
O=[N+]([O-])c1ccccc1CNC12CC3CC(CC(C3)C1)C2 [Example 30, Adamantan-1-yl-(2-nitro-benzyl)-amine]	31 to 95
CSc1ccc(CNC23CC4CC(CC(C4)C2)C3)cc1 [Example 23, Adamantan-1-yl-(4-methylsulfanyl-benzyl)-amine]	0 to 30
c1ccc2sc(CNC34CC5CC(CC(C5)C3)C4)cc2c1 [Example 88, Adamantan-1-yl-benzo[b]thiophen-2-ylmethyl-amine]	0 to 30
COc1ccc(CN(C)C23CC4CC(CC(C4)C2)C3)cc1 [Example 32, Adamantan-1-yl-(4-methoxy-benzyl)-methyl-amine]	31 to 95
COc1cc(F)c(CNC23CC4CC(CC(C4)C2)C3)c(F)c1 [Example 67, Adamantan-1-yl-(2,6-difluoro-4-methoxy-benzyl)-amine]	31 to 95
Oc1c(CNC23CC4CC(CC(C4)C2)C3)ccc2ccccc12 [Example 97, 2-(Adamantan-1-ylaminomethyl)-naphthalen-1-ol]	31 to 95
Oc1cc(F)c(CNC23CC4CC(CC(C4)C2)C3)c(F)c1 [Example 69, 4-(Adamantan-1-ylaminomethyl)-3,5-difluoro-phenol]	31 to 95
O=C(Oc1ccc(CNC23CC4CC(CC(C4)C2)C3)cc1)C1CC1 [Example 34, Cyclopropanecarboxylic acid 4-(adamantan-1-ylaminomethyl)-phenyl ester]	0 to 30
Oc1ccc(CNC23CC4CC(CC(C4)C2)C3)cc1 [Example 9, 4-(Adamantan-1-ylaminomethyl)-phenol]	31 to 95
Oc1ccc(/C=N/C23CC4CC(CC(C4)C2)C3)c(O)c1 [Example 7]	31 to 95
[O-][n+]1ccc(CNC23CC4CC(CC(C4)C2)C3)cc1 [Example 74, Adamantan-1-yl-(1-oxy-pyridin-4-ylmethyl)-amine]	0 to 30
[O-][S+]1Cc2cc(CNC34CC5CC(CC(C5)C3)C4)sc2C1 (stereo not drawn) [Example 85, Adamantan-1-yl-(5-oxo-5,6-dihydro-4H-5M-thieno[3,4-b]thiophen-2-ylmethyl)-amine]	0 to 30
NC(=O)c1ccc(CNC23CC4CC(CC(C4)C2)C3)cc1 [Example 18, 4-(Adamantan-1-ylaminomethyl)-benzamide]	0 to 30
c1ccc(CNC23CC4CC(CC(C4)C2)C3)cc1 [Example 8, Adamantan-1-yl-benzyl-amine]	31 to 95

Same assay, conditions: Table 3; 100 uM; Xenopus oocytes, pH 5.5, -20 mV; read-out: S31 OOcyte Inhibition at 100 uM (%)

Structure (SMILES)	inhibition at 100 µM [%]
CC(C)(C)c1ncc(CNC23CC4CC(CC(C4)C2)C3)s1 [Example 20b, N-((2-(tert-butyl)thiazol-5-yl)methyl)adamantan-1-amine]	0 to 30
COc1ccccc1-c1ccc(CNC23CC4CC(CC(C4)C2)C3)nc1 [Example 69b, Adamantan-1-yl-[5-(2-methoxy-phenyl)-pyridin-2-ylmethyl]-amine]	0 to 30
COc1ccc(-c2nc(CNC34CC5CC(CC(C5)C3)C4)no2)c(OC)c1 [Example 34b, N-((5-(2,4-dimethoxyphenyl)-1,2,4-oxadiazol-3-yl)methyl)adamantan-1-amine]	0 to 30
O=C(CNC12CC3CC(CC(C3)C1)C2)c1cccs1 [Example 87b, 2-(adamantan-1-ylamino)-1-(thiophen-2-yl)ethanone]	31 to 95
COc1ccc(-c2noc(CNC34CC5CC(CC(C5)C3)C4)n2)cc1OC [Example 35b, N-((3-(3,4-dimethoxyphenyl)-1,2,4-oxadiazol-5-yl)methyl)adamantan-1-amine]	0 to 30
Cc1nc(CNC23CC4CC(CC(C4)C2)C3)cs1 [Example 12b, N-((2-methylthiazol-4-yl)methyl)adamantan-1-amine]	31 to 95
Nc1ncc(CNC23CC4CC(CC(C4)C2)C3)s1 [Example 19b]	0 to 30
c1nc(CNC23CC4CC(CC(C4)C2)C3)sc1C1CC1 [Example 65b, Adamantan-1-yl-(5-cyclopropyl-thiazol-2-ylmethyl)-amine]	0 to 30
Cc1ccc(-c2ccc(CNC34CC5CC(CC(C5)C3)C4)s2)o1 [Example 52b, N-((5-(5-Methylfuran-2-yl)thiophen-2-yl)methyl)adamantan-1-amine]	0 to 30
COCc1nc(CNC23CC4CC(CC(C4)C2)C3)no1 [Example 23b, N-((5-(methoxymethyl)-1,2,4-oxadiazol-3-yl)methyl)adamantan-1-amine]	0 to 30
OC12CC3CC(C1)CC(NCc1noc(-c4ccccc4)n1)(C3)C2 [Example 84b, (1s,3r,5R,7S)-3-(((5-phenyl-1,2,4-oxadiazol-3-yl)methyl)amino)adamantan-1-61]	0 to 30
